Experimental data published in patent US9079880B2, “Rho kinase inhibitors” (Boehringer Ingelheim International GmbH, priority 2010, dated 2015).

Key:
[1] = test system: IL-1 beta-induced coronary stenosis; conditions: long term treatment; cited from earlier work
rat stroke model = conditions: in vivo; cited from earlier work
ROCKII (1-543) [2] = target: T1, ROCKII (1-543) (Homo sapiens (Human), UniProt O75116); assay: Luciferin-Luciferase Assay (PKLight ATP detection); type: biochemical; conditions: 750 nM ATP, 500 nM peptide, 7.5 nM kinase
Experimental: 1. Luciferin-Luciferase Assay
The activity of ROCKII (1-543) kinase was measured utilizing Cambrex PKLight ATP Detection Reagent, a homogeneous assay technology using luciferin-luciferase to quantify residual ATP. The assay was performed in 384-well low-volume, white, non-binding surface microtiter plates (Corning). The assay buffer was 25 mM HEPES, pH 7.5, 10 mM MgCl2, 50 mM KCl, 0.2% BSA, 0.01% CHAPS, 100 μM Na3VO4 and 0.5 mM DTT. Test compounds, dissolved in neat DMSO at 500 μg/mL, were serially diluted for dose response for a final starting concentration of 3 μg/mL in 1% DMSO of assay buffer. ROCKII (1-543) (62,408Da) was diluted in assay buffer to a final concentration of 7.5 nM in a total volume of 15 μL. Positive controls were reaction mixtures containing no test compound; negative controls (blanks) were reaction mixtures containing no kinase. After 15 minutes of pre-incubation of the test compounds with the kinase, a mixture of ATP and peptide substrate ([…]) in assay buffer was added to each well for a final concentration of 750 nM ATP and 500 nM peptide, respectively. After 90 minutes of incubation of the kinase reaction at 28° C. temperature, 10 μL of PKLight ATP Detection Reagent (warmed to room temperature previously) was added to each well. The assay plate was incubated at room temperature for additional 15 minutes and then read on an Analyst in luminescence mode. Dose-response experiments for each of the test compounds were conducted in quadruplet. IC50 values of test compounds represent 50% response of the positive control from the dose-response curve.
Target sequence in this assay (O75116 1-543): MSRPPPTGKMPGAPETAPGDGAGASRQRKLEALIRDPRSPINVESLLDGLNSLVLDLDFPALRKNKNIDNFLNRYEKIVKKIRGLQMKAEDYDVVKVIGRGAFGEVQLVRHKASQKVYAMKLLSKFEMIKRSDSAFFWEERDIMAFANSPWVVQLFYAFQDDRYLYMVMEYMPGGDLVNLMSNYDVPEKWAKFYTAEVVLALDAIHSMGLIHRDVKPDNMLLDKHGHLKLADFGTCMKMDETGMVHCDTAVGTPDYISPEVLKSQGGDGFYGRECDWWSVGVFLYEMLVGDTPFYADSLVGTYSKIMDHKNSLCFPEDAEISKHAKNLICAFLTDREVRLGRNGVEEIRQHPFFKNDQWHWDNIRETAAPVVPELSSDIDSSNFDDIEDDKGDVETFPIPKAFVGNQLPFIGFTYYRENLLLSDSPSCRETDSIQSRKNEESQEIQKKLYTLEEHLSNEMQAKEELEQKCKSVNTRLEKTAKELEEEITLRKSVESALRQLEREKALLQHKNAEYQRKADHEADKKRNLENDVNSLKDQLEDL

ROCKII (1-543) [3] = target: T1, ROCKII (1-543); assay: IMAP Assay (fluorescence polarization, FAM S6 peptide); type: biochemical; conditions: 100 μM ATP, 200 nM FAM S6 peptide, 1 nM kinase; read-out: Assay 2 IC50
Experimental: This assay is performed using FAM S6 substrate peptide (Catalogue #R7184) and IMAP FP Screening Express Kit detection reagents from Molecular Devices (Sunnyvale, Calif.) in IMAP kinase reaction buffer (Tris-HCl, pH 7.2, 10 mM MgCl2, 0.05% NaN3, 0.1% phosphate-free BSA) containing 1 mM DTT. Test compounds dissolved in neat DMSO at 0.3 mg/mL are serially diluted 1 to 3 for concentration response in 100% DMSO. The DMSO serial dilutions are further diluted 33.33-fold in kinase reaction buffer, and 10 μL of this buffer dilution is transferred to Corning black 96-well half area NBS plates for a final top concentration of 3 μg/mL in 1% DMSO. 10 μL aliquot of 3 nM ROCKII (1-543) diluted in kinase reaction buffer is added to each assay well for a final concentration of 1 nM kinase. 10 μL of a mixture of 600 nM FAM S6 peptide and 300 μM ATP diluted in kinase reaction buffer is added to each well for a final concentration of 200 nM peptide and 100 μM ATP. The kinase reaction mixture is incubated for 60 minutes at room temperature. Positive controls are reaction mixtures containing no test compound and negative controls (blanks) are reaction mixtures containing no kinase. The kinase reaction is stopped by addition of 60 μL IMAP progressive binding reagent (Catalog #R7284) diluted 400-fold in 1× Binding buffer A. After 30 min of incubation at room temperature, the plates are read for fluorescence polarization on Analyst Plate Reader using Ex 485 nm, Em 530 nm, and FL 505 dichroic mirror. The mP signals are converted to percent of control (POC) values using the formula: POC=100*(Signal−BCTRL)÷(PCTRL−BCTRL)
Where Signal is the test well signal, BCTRL is the average of background (negative control) well signals on the plate and PCTRL is the average of positive control well signals on the plate. For the concentration-responsive compounds, POC as a function of test compound concentration is fitted to a 4-parameter logistic equation of the form: Y=A+(B−A)/[1+(x/C)D] Where A, B, C, and D are fitted parameters (parameter B is fixed at zero POC), and x and y are the independent and dependent variables, respectively. The IC50 is determined as the inflection point parameter, C.
Target sequence in this assay (O75116 1-543, species assumed): as the sequence (O75116 1-543) above

[4] = test system: spontaneously hypertensive rat, renal hypertensive rat and deoxycortisone acetate salt hypertensive rat models; conditions: cited from earlier work
[5] = test system: neointimal formation in rats; conditions: cited from earlier work
Dahl salt-sensitive rats = conditions: rat, in vivo; cited from earlier work

| Structure (SMILES) | IC50 (ROCKII (1-543) [2]) | IC50 (ROCKII (1-543) [3]) | also measured |
| --- | --- | --- | --- |
| O=S(=O)(c1cccc2cnccc12)N1CCCNCC1 [fasudil] | – | – | coronary constrictive remodeling [1]: promote a regression of coronary constrictive remodeling; coronary stenosis [1]: progressively reduce coronary stenosis; infarct size and neurologic deficit (rat stroke model): reduce both the infarct size and neurologic deficit |
| N#Cc1cccc(NC(=O)N2CCC[C@@H]2c2cccc(C(=O)Nc3nc4c(s3)C[C@H](N)CC4)c2)c1 [Compound 22] | 2.6 nM | 1 nM | – |
| CN1CCc2nc(NC(=O)c3cccc([C@H]4CCCN4C(=O)Nc4cccc(C#N)c4)c3)sc2C1 [Compound 101, (R)-2-[3-(5-Methyl-4,5,6,7-tetrahydro-thiazolo[5,4-c]pyridin-2-ylcarbamoyl)-phenyl]-pyrrolidine-1-carboxylic acid (3-cyano-phenyl)-amide trifluoroacetic acid] | 3.1 nM | 6.8 nM | – |
| COc1ccc(C(=O)N2CCC[C@@H]2c2cccc(C(=O)Nc3nc4c(s3)C[C@@H](N3CCOCC3)CC4)c2)cc1C [Compound 116] | 7.8 nM | 9.7 nM | – |
| C[C@@H](N)[C@H]1CC[C@H](C(=O)Nc2ccncc2)CC1 [Compound Y-27632, Y-27632] | – | – | blood pressure in control rats ([4]; control rats): only a minor effect on blood pressure; blood pressure in three rat models of hypertension ([4]; hypertensive rats): significantly decrease blood pressure; neointimal formation [5]: inhibited neointimal formation; ventricular hypertrophy and function (Dahl salt-sensitive rats): improve ventricular hypertrophy and function |
| COc1ccc(C(=O)N[C@H](C)c2cccc(C(=O)Nc3nc4c(s3)CN(C)CC4)c2)cc1C [Compound 93] | 9 nM | 29 nM | – |
| COCCN(C)C1CCc2nc(NC(=O)c3cccc(OCC(=O)Nc4ccc(C#N)cc4)c3)sc2C1 (stereo not drawn) [Compound 156] | 7.2 nM | 31 nM | – |

More lines, main results first:

| IC50 (ROCKII (1-543) [2]) | IC50 (ROCKII (1-543) [3]) | Structure (SMILES) | also measured |
| --- | --- | --- | --- |
| 3.2 nM | 7.9 nM | O=C(Nc1nc2c(s1)C[C@@H](N1CCOCC1)CC2)c1cccc([C@H]2CCCN2C(=O)c2csc(-c3ccncc3)n2)c1 [Compound 120] | – |
| 2.8 nM | 10 nM | Cc1nc(-c2ccncc2)sc1C(=O)N1CCC[C@@H]1c1cccc(C(=O)Nc2nc3c(s2)C[C@@H](N(C)C)CC3)c1 [Compound 48] | – |
| 6.2 nM | 11 nM | CCCC[C@@H](NC(=O)c1ccc(OC)c(OC)c1)c1cccc(C(=O)Nc2nc3c(s2)CN(C)CC3)c1 [Compound 98] | – |
| 1.4 nM | 0.7 nM | CN1CCc2nc(NC(=O)c3cccc([C@H]4CCCN4C(=O)Nc4ccc(C(N)=O)cc4)c3)sc2C1 [Compound 44] | – |
| 6.1 nM | 24 nM | N#Cc1ccc(NC(=O)COc2cccc(C(=O)Nc3nc4c(s3)CC(N3CCN(C5CC5)CC3)CC4)c2)cc1 (stereo not drawn) [Compound 152] | – |
| 2.9 nM | 2.9 nM | N#Cc1cccc2c1CCN2C(=O)N1CCC[C@@H]1c1cccc(C(=O)Nc2nc3c(s2)C[C@@H](N2CCOCC2)CC3)c1 [Compound 110] | – |
| 3.6 nM | 29 nM | Cc1nc(-c2ccncc2)sc1C(=O)N1CCC[C@@H]1c1cccc(C(=O)Nc2nc3c(s2)C[C@@H](N2CCOCC2)CC3)c1 [Compound 128] | – |
| 2.6 nM | 6.9 nM | O=C(Nc1nc2c(s1)C[C@@H](N1CCOCC1)CC2)c1cccc([C@H]2CCCN2C(=O)c2csc(-c3cccnc3)n2)c1 [Compound 136] | – |
